Source: ChEMBL document CHEMBL1131262, “Comprehensive study on structure-activity relationships of rifamycins: discussion of molecular and crystal structure and spectroscopic and thermochemical properties of rifamycin O” (J Med Chem, 1998)
≈ marks a conversion by molar mass, not a printed value. Calls of active or inactive are those of the source. The rule behind the calls is not given here.

How the values were obtained:
Escherichia coli [1] = assay: The compound is evaluated for inhibitory concentration against Escherichia coli and is expressed as minimum inhibitory concentration (MIC); Non active; assay type: functional, organism-based
Nucleic Acid [2] = assay: Inhibitory concentration against DNA dependent RNA polymerase in E. coli; Non active; assay type: nucleic-acid assay, Escherichia coli
Nucleic Acid [3] = assay: Inhibitory concentration against DNA dependent RNA polymerase in Escherichia coli; assay type: nucleic-acid assay
Escherichia coli [4] = assay: The compound is evaluated for inhibitory concentration against Escherichia coli and is expressed as minimum inhibitory concentration (MIC).; assay type: functional
Escherichia coli [5] = assay: The compound is evaluated for inhibitory concentration against Escherichia coli and is expressed as minimum inhibitory concentration (MIC); active; assay type: functional, organism-based
[6] = Escherichia coli, read-out: MIC

| MIC (Escherichia coli [1]) | IC50 (Nucleic Acid [2]) | IC50 (Nucleic Acid [3]) [nM/unit] | Compound | other results |
| --- | --- | --- | --- | --- |
| inactive |  |  | COC1=N/C2=CC(=O)c3c(c(O)c(C)c4c3C(=O)C(C)(O/C=C/C(OC)C(C)C(OC(C)=O)C(C)C(O)C(C)C(O)C(C)\C=C/C=C\1C)O4)C2=O (configuration not stated) |  |
| inactive | Not Active |  | COC1/C=C/OC2(C)Oc3c(C)c(O)c4c(O)c(cc(OCC(=O)Nc5ccc(I)cc5)c4c3C2=O)NC(=O)/C(C)=C\C=C\C(C)(O)C(=O)C(C)C(O)C(C)C(OC(C)=O)C1C (configuration not stated) |  |
| inactive | Not Active |  | COc1c(C)c2c3c4c(O)cc5c(c14)OC(N5)/C(C)=C\C=C\C(C)C(O)C(C)C(O)C(C)C(OC(C)=O)C(C)C(OC)/C=C/OC(C)(O2)C3=O (configuration not stated) |  |
|  |  | 85 | CO[C@H]1/C=C/O[C@@]2(C)Oc3c(C)c(O)c4c(O)c(cc(O)c4c3C2=O)NC(=O)/C(C)=C\C=C\[C@H](C)[C@H](O)[C@@H](C)[C@@H](O)[C@@H](C)[C@H](OC(C)=O)[C@@H]1C (stereo in doubt; form 2) [RIFAMYCIN] | MIC (Escherichia coli [4]): 25 µg/mL (≈ 35.8 µM) |
|  |  | 50 | COC1/C=C/OC2(C)Oc3c(C)c(O)c4c(c3C2=O)C(=O)C=C(NC(=O)/C(C)=C\C=C\C(C)C(O)C(C)C(O)C(C)C(OC(C)=O)C1C)C4=O (configuration not stated) | MIC (Escherichia coli [4]; [6]): 12 µg/mL (≈ 17.2 µM) |

Continued, molecule first:

| Compound | MIC (Escherichia coli [1]) | IC50 (Nucleic Acid [2]) | IC50 (Nucleic Acid [3]) [nM/unit] | other results |
| --- | --- | --- | --- | --- |
| COC(=O)C1=C2NC(=O)/C(C)=C\C=C\C(C)C(O)C(C)C(O)C(C)C(OC(C)=O)C(C)C(OC)/C=C/OC3(C)Oc4c(C)c(O)c(c(c4C3=O)C1=O)C2=O (configuration not stated) |  |  | 20 |  |
| COC1/C=C/OC2(C)Oc3c(C)c(O)c4c(c3C2O)C(=O)C=C(NC(=O)/C(C)=C\C=C\C(C)C(OC(C)=O)C(C)C(O)C(C)C(OC(C)=O)C1C)C4=O (configuration not stated) | inactive | Not Active |  |  |
| CO[C@H]1/C=C/O[C@@]2(C)Oc3c(C)c(O)c4c(O)c(c(/C=N/N5CCN(C)CC5)c(O)c4c3C2=O)NC(=O)/C(C)=C\C=C\[C@H](C)[C@H](O)[C@@H](C)[C@@H](O)[C@@H](C)[C@H](OC(C)=O)[C@@H]1C [RIFAMPIN] |  |  |  | MIC (Escherichia coli [4]; [6]): 20 µg/mL (≈ 24.3 µM) |
| COC1/C=C/OC2(C)Oc3c(C)c(O)c4c(c3C2O)C(=O)C=C(NC(=O)/C(C)=C\C=C\C(C)C2OC(C)(C)OC(C(C)C(O)C1C)C2C)C4=O (configuration not stated) | inactive | Not Active |  |  |
| COC1/C=C/OC2(C)Oc3c(C)c(O)c4c(c3C2=O)C(=O)C=C(NC(=O)/C(C)=C\C(=O)C2CC2C(O)C(C)C(O)C(C)C(OC(C)=O)C1C)C4=O (configuration not stated) [TOLYPOMYCINONE] | inactive | Not Active |  |  |
| CO[C@H]1/C=C/O[C@@]2(C)Oc3c(C)c(O)c4c(O)c(cc(O)c4c3C2=O)NC(=O)/C(C)=C\C=C\[C@H](C)[C@H](O)[C@@H](C)[C@@H](O)[C@@H](C)[C@H](OC(C)=O)[C@@H]1C (stereo in doubt; form 1) [RIFAMYCIN] |  |  | 15 | MIC (Escherichia coli [4]): 3 µg/mL (≈ 4.3 µM) |
| CCN(CC)c1nc2c(s1)c1c(O)c3c(O)c(C)c4c(c32)C(=O)[C@@](C)(O/C=C/[C@H](OC)[C@@H](C)[C@@H](OC(C)=O)[C@H](C)[C@H](O)[C@H](C)[C@@H](O)[C@@H](C)/C=C/C=C(/C)C(=O)N1)O4 [RIFAMEXIL] |  |  |  | MIC (Escherichia coli [4]; [6]): 32 µg/mL (≈ 39.5 µM) |
| COC1=N\C2=CC(=O)c3c(c(O)c(C)c4c3C(=O)C(C)(O/C=C/C(OC)C(C)C(OC(C)=O)C(C)C(O)C(C)C(O)C(C)/C=C/C=C\1C)O4)C2=O (configuration not stated) |  | Not Active |  |  |
| COC1/C=C/C2OC3(C)C4c5c(c(C)c(O)c6c5C(=O)C=C(NC(=O)/C(C)=C\C=C\C(C)C5OC(C)(C)OC(C(C)C(O)C1C)C5C)C6=O)OC43O2 (configuration not stated) | inactive | Not Active |  |  |
| COC1/C=C/OC2(C)Oc3c(C)c(O)c4c(c3C2=O)-c2[n-]c3ccc(Br)c[n+]3c2/C(=N/C(=O)/C(C)=C\C=C\C(C)C(O)C(C)C(O)C(C)C(OC(C)=O)C1C)C4=O (configuration not stated) |  |  |  | MIC (Escherichia coli [5]): Active |
| COC1/C=C/OC2(C)Oc3c(C)c(O)c4c(c3C2=O)C(=O)C=C(NC(=O)C(C)CCCC(C)C(O)C(C)C(O)C(C)C(OC(C)=O)C1C)C4=O (configuration not stated) |  |  | 1600 |  |
| COC1/C=C/OC2(C)Oc3c(C)c(O)c4c(c3C2=O)C2(C=C(NC(=O)/C(C)=C\C=C\C(C)C(O)C(C)C(O)C(C)C(OC(C)=O)C1C)C4=O)OCC(=O)O2 (configuration not stated) |  |  |  | MIC (Escherichia coli [4]; [6]): 75 µg/mL (≈ 99.5 µM) |
| COC1/C=C/OC2(C)Oc3c(C)c(O)c4c(c3C2O)C(=O)C=C(NC(=O)/C(C)=C\C=C\C(C)C(O)C(C)C(O)C(C)C(OC(C)=O)C1C)C4=O (configuration not stated) |  |  | 50 |  |
